From patent publication US4970162A, “Human-mouse hybrid cell line expressing monocyte-macrophage properties” (The United States of America as represented by the …, priority 1985, dated 1990)

Assays:
macrophage chemotaxis = conditions: cited from earlier work
RAW264 cells = test: chemotaxis of RAW264 cells; type: cell-based; conditions: mouse RAW264 cells
Description: (§1) Chemotaxis by the cell lines was measured in a 48-well microchemotaxis chamber (Neuro Probe, Inc., Cabin John, Md.) with a 10 μm thick Nuclepore polycarbonate membrane coated with polyvinylpyrrolidone and containing 5 μm pores as described by Aksamit, et al., J. Immunol 126:2194 (1981). Upper wells contained 50,000 cells in MEM with 10% heat-inactivated fetal calf serum, and lower wells contained attractant in RPMI-1640 (GIBCO, Grand Island, N.Y.). […] EAMS was prepared as described by Aksamit et al., supra. Cells in the chemotaxis chamber were allowed to migrate for 4 hrs at 37° C. in an atmosphere of 5% CO2 and 95% air. The top cells were wiped off the filter, and cells on the bottom were stained in Diff-Quik (Harleco, Gibbstown, N.J.). Chemotaxis was quantified by measurement of the optical density of the migrated cells.

WBC264-9 cells = test: chemotaxis of WBC264-9 cells in 48-well microchemotaxis chamber; type: cell-based, human-mouse hybrid
Description: as §1

Row | Molecule | inhibition of macrophage chemotaxis (macrophage chemotaxis) | chemotaxis to FMLP (RAW264 cells) | chemotaxis to FMLP (WBC264-9 cells; 30 nM FMLP, cell line 9 (WBC264-9), for 20 passages, FIG. 1) | concentration of optimal chemotactic response (WBC264-9 cells; WBC264-9 cells, 4 hrs at 37° C., FIG. 2)
1 | pertussis toxin | potent inhibitor |  |  | 
2 | CSCC[C@H](NC=O)C(=O)N[C@@H](CC(C)C)C(=O)N[C@@H](Cc1ccccc1)C(=O)O [FMLP, N-formylmethionine-leucine-phenylalanine] |  | do not exhibit chemotaxis | high level of chemotaxis | approximately 3×10^-8 M
